According to patent EP0908457B1, “3-(1,2-benzisothiazol- and isoxazol-5-Y1)-2,4(1H,3H)-pyrimidinedione or thione and 3-(1,2-benzisothiazol- and isoxazol-5-y1)-4(3H)-pyrimidinone or thione herbicidal agents” (BASF AKTIENGESELLSCHAFT, priority 1997, dated 1999):

Tests used:
[1] = system: Cyperus serotinus, Rottb.; assay: Preemergence weed control under flooded paddy conditions, CYPSE (Flatsedge); format: in vivo; conditions: preemergence, rated 3-4 weeks after treatment; note: meaning of each grade not given here
[2] = system: Echinochloa oryzoides (Ard.) Fritsch.; assay: Postemergence weed control under flooded paddy conditions, ECHORC (Watergrass (Calif.)); format: in vivo; conditions: rated three to four weeks after treatment
Sagittaria pygmaea, L. [3] = assay: Postemergence weed control under flooded paddy conditions, SAGPY (Arrowhead (Pygmaea)); format: in vivo; conditions: rated three to four weeks after treatment
[4] = system: Oryza sativa, (L.) Tebonnet; assay: Rice tolerance to post-transplant applications under flooded paddy conditions (Example 187), ORYSAT (Rice, Tebonnet); conditions: rated 3-4 weeks after treatment; note: meaning of each grade not given here
Cyperus iria [5] = assay: Preemergence weed control under flooded paddy conditions, CYPIR (Rice Flatsedge); format: in vivo; conditions: preemergence, flooded paddy, rated 3-4 weeks after treatment; note: meaning of each grade not given here
[6] = system: Monochoria vaginalis, Presl.; assay: Postemergence weed control under flooded paddy conditions, MOOVA (Monochoria); format: in vivo; conditions: rated three to four weeks after treatment
[7] = system: Echinochloa oryzoides (Ard.) Fritsch.; assay: Preemergence weed control under flooded paddy conditions, ECHORC (Watergrass (Calif.)); format: in vivo; conditions: preemergence, flooded paddy, rated 3-4 weeks after treatment; note: meaning of each grade not given here
[8] = system: Monochoria vaginalis, Presl.; assay: Preemergence weed control under flooded paddy conditions, MOOVA (Monochoria); format: in vivo; conditions: preemergence, flooded paddy, rated 3-4 weeks after treatment; note: meaning of each grade not given here
Cyperus iria [9] = assay: Postemergence weed control under flooded paddy conditions, CYPIR (Rice Flatsedge); format: in vivo; conditions: rated three to four weeks after treatment
Sagittaria pygmaea, L. [10] = assay: Preemergence weed control under flooded paddy conditions, SAGPY (Arrowhead (Pygmaea)); format: in vivo; conditions: preemergence, flooded paddy, rated 3-4 weeks after treatment; note: meaning of each grade not given here
[11] = system: Oryza sativa, (L.) Tebonnet; assay: Rice tolerance to post-transplant applications under flooded paddy conditions (Example 188), ORYSAT (Rice, Tebonnet); conditions: rated three to four weeks after treatment
[12] = system: Cyperus serotinus, Rottb.; assay: Postemergence weed control under flooded paddy conditions, CYPSE (Flatsedge); format: in vivo; conditions: rated three to four weeks after treatment

Cc1ccc(OCC(=O)OCC2(c3ccccc3)CC2)c(-c2nsc3ccc(-n4c(=O)cc(C(F)(F)F)n(C)c4=O)cc23)c1 [Example 517, Acetic acid, {{2-{5-[3,6-dihydro-3-methyl-2,6-dioxo-4-(trifluoromethyl)-1(2H)-pyrimidinyl]-1,2-benzisothiazol-3-yl}-p-tolyl}oxy}-, (1-phenylcyclopropyl)methyl ester]
herbicidal effect rating, CYPSE ([1]; Rate 0.0320 kg/ha): 3.0 | herbicidal effect rating, CYPSE ([1]; Rate 0.0620 kg/ha): 4.5 | herbicidal effect rating, CYPSE ([1]; Rate 0.1250 kg/ha): 4.5 | herbicidal effect rating, CYPSE ([1]; Rate 0.2500 kg/ha): 0.0 | herbicidal effect rating, ECHORC ([2]; Rate 0.0320 kg/ha): 0.0 | herbicidal effect rating, ECHORC ([2]; Rate 0.0620 kg/ha): 0.0 | herbicidal effect rating, ECHORC ([2]; Rate 0.1250 kg/ha): 0.0 | herbicidal effect rating, ECHORC ([2]; Rate 0.2500 kg/ha): 0.0 | herbicidal effect rating, SAGPY (Sagittaria pygmaea, L. [3]; Rate 0.0320 kg/ha): 0.0 | herbicidal effect rating, SAGPY (Sagittaria pygmaea, L. [3]; Rate 0.0620 kg/ha): 0.0 | herbicidal effect rating, SAGPY (Sagittaria pygmaea, L. [3]; Rate 0.1250 kg/ha): 0.0 | herbicidal effect rating, SAGPY (Sagittaria pygmaea, L. [3]; Rate 0.2500 kg/ha): 0.0 | herbicidal effect rating ORYSAT ([4]; Rate 0.0320 kg/ha): 0.0 | herbicidal effect rating ORYSAT ([4]; Rate 0.0620 kg/ha): 0.0 | herbicidal effect rating ORYSAT ([4]; Rate 0.1250 kg/ha): 1.5 | herbicidal effect rating ORYSAT ([4]; Rate 0.2500 kg/ha): 3.0 | herbicidal effect rating, CYPIR (Cyperus iria [5]; Rate 0.0320 kg/ha): 5.5 | herbicidal effect rating, CYPIR (Cyperus iria [5]; Rate 0.0620 kg/ha): 6.5 | herbicidal effect rating, CYPIR (Cyperus iria [5]; Rate 0.1250 kg/ha): 5.5 | herbicidal effect rating, CYPIR (Cyperus iria [5]; Rate 0.2500 kg/ha): 7.0 | herbicidal effect rating, MOOVA ([6]; Rate 0.0320 kg/ha): 9.0 | herbicidal effect rating, MOOVA ([6]; Rate 0.0620 kg/ha): 9.0 | herbicidal effect rating, MOOVA ([6]; Rate 0.1250 kg/ha): 9.0 | herbicidal effect rating, MOOVA ([6]; Rate 0.2500 kg/ha): 9.0 | herbicidal effect rating, ECHORC ([7]; Rate 0.0320 kg/ha): 9.0 | herbicidal effect rating, ECHORC ([7]; Rate 0.0620 kg/ha): 9.0 | herbicidal effect rating, ECHORC ([7]; Rate 0.1250 kg/ha): 8.0 | herbicidal effect rating, ECHORC ([7]; Rate 0.2500 kg/ha): 9.0 | herbicidal effect rating, MOOVA ([8]; Rate 0.0320 kg/ha): 9.0 | herbicidal effect rating, MOOVA ([8]; Rate 0.0620 kg/ha): 9.0 | herbicidal effect rating, MOOVA ([8]; Rate 0.1250 kg/ha): 9.0 | herbicidal effect rating, MOOVA ([8]; Rate 0.2500 kg/ha): 9.0 | herbicidal effect rating, CYPIR (Cyperus iria [9]; Rate 0.0320 kg/ha): 3.0 | herbicidal effect rating, CYPIR (Cyperus iria [9]; Rate 0.0620 kg/ha): 5.0 | herbicidal effect rating, CYPIR (Cyperus iria [9]; Rate 0.1250 kg/ha): 9.0 | herbicidal effect rating, CYPIR (Cyperus iria [9]; Rate 0.2500 kg/ha): 9.0 | herbicidal effect rating, SAGPY (Sagittaria pygmaea, L. [10]; Rate 0.0320 kg/ha): 0.0 | herbicidal effect rating, SAGPY (Sagittaria pygmaea, L. [10]; Rate 0.0620 kg/ha): 0.0 | herbicidal effect rating, SAGPY (Sagittaria pygmaea, L. [10]; Rate 0.1250 kg/ha): 0.0 | herbicidal effect rating, SAGPY (Sagittaria pygmaea, L. [10]; Rate 0.2500 kg/ha): 0.0 | herbicidal effect rating, ORYSAT (rice tolerance) ([11]; Rate 0.0320 kg/ha): 0.0 | herbicidal effect rating, ORYSAT (rice tolerance) ([11]; Rate 0.0620 kg/ha): 0.0 | herbicidal effect rating, ORYSAT (rice tolerance) ([11]; Rate 0.1250 kg/ha): 0.0 | herbicidal effect rating, ORYSAT (rice tolerance) ([11]; Rate 0.2500 kg/ha): 0.0 | herbicidal effect rating, CYPSE ([12]; Rate 0.0320 kg/ha): 0.0 | herbicidal effect rating, CYPSE ([12]; Rate 0.0620 kg/ha): 0.0 | herbicidal effect rating, CYPSE ([12]; Rate 0.1250 kg/ha): 0.0 | herbicidal effect rating, CYPSE ([12]; Rate 0.2500 kg/ha): 0.0
